The series concerns SNU-C4 HiBiT-PXR KI cells. Briefly: Cytotoxicity, CellTiter-Glo Luminescent Cell Viability Assay. Format: cell-based. As for the experimental part: An Echo 655T Acoustic Liquid Handler was used to dispense 75 nL/well of DMSO or PROTAC dilution into white tissue culture-treated 384-well plates. For 24 h cytotoxicity, 25 μL assay media containing 1×10^4 cells was added to each well to match the conditions for the degradation assays. For 72 h cytotoxicity, 25 μL RPMI with 10% FBS containing 2.5×10^3 cells was added to each well to match normal growth conditions. […] After 24 h or 72 h, the CellTiter-Glo Luminescent Cell Viability Assay (Promega, cat. #G7572) and an EnVision microplate reader were used to assess cytotoxicity. DMSO wells with cells served as positive controls, and wells without cells served as negative controls. The percent cell viability for each well was calculated using equation 5,
A general note: In ATP-based viability assays light output follows the ATP content of the culture.

Setting [1] is: read-out: 24 h CC50, Table 2, 24 h treatment.
Where [2] appears, read: read-out: 72 h CC50, Table 2, 72 h treatment.
Setting [3] is: read-out: 24 h CC50, Table 3, 24 h treatment.
Setting [4] is: read-out: 72 h CC50, Table 3, 72 h treatment.

The structures appear in SMILES notation. Where two headings read alike, the source gives them in different places. Where only a bound is given, the exact number is not on record here.

One may read the CC50 as the concentration that lowers cell viability or growth by half.

Consider `COc1ccc(OC)c(-n2nnc(C(=O)Nc3cc(OCCCCCCOCCOCC(=O)N[C@H](C(=O)N4C[C@H](O)C[C@H]4C(=O)NCc4ccc(-c5scnc5C)cc4)C(C)(C)C)cc(C(C)(C)C)c3)c2C)c1` [Compound 15, N-(3-(TERT-BUTYL)-5-((6-(2-(2-(((S)-1-((2S,4R)-4-HYDROXY-2-((4-(4-METHYLTHIAZOL-5 YL)BENZYL)CARBAMOYL)PYRROLIDIN-1-YL)-3,3-DIMETHYL-1-OXOBUTAN-2-YL)AMINO)-2-OXOETHOXY)ETHOXY)HEXYL)OXY)PHENYL)-1-(2,5-DIMETHOXYPHENYL)-5-METHYL-1H-1,2,3-TRIAZOLE-4-CARBOXAMIDE], for which the CC50 by setting is: under setting [1], above 30 µM; under setting [2], above 30 µM.
As for `CCC[C@H](CC)Oc1ccc(C(=O)N[C@H](C(=O)N2C[C@H](O)C[C@H]2C(=O)NCc2ccc(-c3scnc3C)cc2)C(C)(C)C)cc1NC(=O)c1nnn(-c2cc(OC)ccc2OC)c1C` [Compound 16], the CC50 is above 30 µM under setting [1] and above 30 µM under setting [2].
With `CCC[C@H](CC)Oc1ccc(C(=O)NCCCCC(=O)N[C@H](C(=O)N2C[C@H](O)C[C@H]2C(=O)NCc2ccc(-c3scnc3C)cc2)C(C)(C)C)cc1NC(=O)c1nnn(-c2cc(OC)ccc2OC)c1C` [Compound 17], the CC50 reads like this: under setting [1], above 30 µM; under setting [2], above 30 µM.
For `CCC[C@H](CC)Oc1ccc(C(=O)NCCOCCOCC(=O)N[C@H](C(=O)N2C[C@H](O)C[C@H]2C(=O)NCc2ccc(-c3scnc3C)cc2)C(C)(C)C)cc1NC(=O)c1nnn(-c2cc(OC)ccc2OC)c1C` [Compound 18], the CC50 by setting is: under setting [1], above 30 µM; under setting [2], above 30 µM.
For `CCC[C@H](CC)Oc1ccc(C(=O)NCCCCCCCCC(=O)N[C@H](C(=O)N2C[C@H](O)C[C@H]2C(=O)NCc2ccc(-c3scnc3C)cc2)C(C)(C)C)cc1NC(=O)c1nnn(-c2cc(OC)ccc2OC)c1C` [Compound 19], the CC50 reads like this: under setting [1], above 30 µM; under setting [2], above 30 µM.
Take `CCC[C@H](CC)Oc1ccc(C(=O)NCCOCCOCCOCCOCC(=O)N[C@H](C(=O)N2C[C@H](O)C[C@H]2C(=O)NCc2ccc(-c3scnc3C)cc2)C(C)(C)C)cc1NC(=O)c1nnn(-c2cc(OC)ccc2OC)c1C` [Compound 21]: the CC50 is, setting by setting: under setting [1], above 30 µM; under setting [2], above 30 µM.
Regarding `COc1cc(OCC(=O)N[C@H](C(=O)N2C[C@H](O)C[C@H]2C(=O)NCc2ccc(-c3scnc3C)cc2)C(C)(C)C)c(C)cc1-n1nnc(S(=O)(=O)c2ccc(C(C)(C)C)cc2)c1C` [Compound 22, (2S,4R)-1-((S)-2-(2-(4-(4-((4-(TERT-BUTYL)PHENYL)SULFONYL)-5-METHYL-1H-1,2,3-TRIAZOL-1-YL)-5-METHOXY-2-METHYLPHENOXY)ACETAMIDO)-3,3-DIMETHYLBUTANOYL)-4-HYDROXY-N-(4-(4-METHYLTHIAZOL-5 YL)BENZYL)PYRROLIDINE-2-CARBOXAMIDE], the CC50 under setting [3] was above 30 µM and the CC50 under setting [4] was above 30 µM.
In the case of `COc1cc(OCCCC(=O)N[C@H](C(=O)N2C[C@H](O)C[C@H]2C(=O)NCc2ccc(-c3scnc3C)cc2)C(C)(C)C)c(C)cc1-n1nnc(S(=O)(=O)c2ccc(C(C)(C)C)cc2)c1C` [Compound 23, (2S,4R)-1-((S)-2-(4-(4-(4-((4-(TERT-BUTYL)PHENYL)SULFONYL)-5-METHYL-1H-1,2,3-TRIAZOL-1-YL)-5-METHOXY-2-METHYLPHENOXY)BUTANAMIDO)-3,3-DIMETHYLBUTANOYL)-4-HYDROXY-N-(4-(4-METHYLTHIAZOL-5-YL)BENZYL)PYRROLIDINE-2-CARBOXAMIDE], the CC50 by setting is: under setting [3], above 30 µM; under setting [4], above 30 µM.
`COc1cc(OCCOCCC(=O)N[C@H](C(=O)N2C[C@H](O)C[C@H]2C(=O)NCc2ccc(-c3scnc3C)cc2)C(C)(C)C)c(C)cc1-n1nnc(S(=O)(=O)c2ccc(C(C)(C)C)cc2)c1C` [Compound 24, (2S,4R)-1-((S)-2-(3-(2-(4-(4-((4-(TERT-BUTYL)PHENYL)SULFONYL)-5-METHYL-1H-1,2,3-TRIAZOL-1-YL)-5-METHOXY-2-METHYLPHENOXY)ETHOXY)PROPANAMIDO)-3,3-DIMETHYLBUTANOYL)-4-HYDROXY-N-(4-(4-METHYLTHIAZOL-5-YL)BENZYL)PYRROLIDINE-2-CARBOXAMIDE]: the CC50 is above 30 µM under setting [3] and above 30 µM under setting [4].
Take `COc1cc(OCCCCCCCC(=O)N[C@H](C(=O)N2C[C@H](O)C[C@H]2C(=O)NCc2ccc(-c3scnc3C)cc2)C(C)(C)C)c(C)cc1-n1nnc(S(=O)(=O)c2ccc(C(C)(C)C)cc2)c1C` [Compound 25, (2S,4R)-1-((S)-2-(8-(4-(4-((4-(TERT-BUTYL)PHENYL)SULFONYL)-5-METHYL-1H-1,2,3-TRIAZOL-1-YL)-5-METHOXY-2-METHYLPHENOXY)OCTANAMIDO)-3,3-DIMETHYLBUTANOYL)-4-HYDROXY-N-(4-(4-METHYLTHIAZOL-5-YL)BENZYL)PYRROLIDINE-2-CARBOXAMIDE]: the CC50 reads like this: under setting [3], above 30 µM; under setting [4], above 30 µM.
On to `COc1cc(OCCOCCOCCC(=O)N[C@H](C(=O)N2C[C@H](O)C[C@H]2C(=O)NCc2ccc(-c3scnc3C)cc2)C(C)(C)C)c(C)cc1-n1nnc(S(=O)(=O)c2ccc(C(C)(C)C)cc2)c1C` [Compound 26, (2S,4R)-1-((S)-2-(3-(2-(2-(4-(4-((4-(TERT-BUTYL)PHENYL)SULFONYL)-5-METHYL-1H-1,2,3-TRIAZOL-1-YL)-5-METHOXY-2-METHYLPHENOXY)ETHOXY)ETHOXY)PROPANAMIDO)-3,3-DIMETHYLBUTANOYL)-4-HYDROXY-N-(4-(4-METHYLTHIAZOL-5-YL)BENZYL)PYRROLIDINE-2-CARBOXAMIDE], for which the CC50 is above 30 µM under setting [3] and above 30 µM under setting [4].
As for `COc1cc(OCCOCCOCCOCCC(=O)N[C@H](C(=O)N2C[C@H](O)C[C@H]2C(=O)NCc2ccc(-c3scnc3C)cc2)C(C)(C)C)c(C)cc1-n1nnc(S(=O)(=O)c2ccc(C(C)(C)C)cc2)c1C` [Compound 27, (2S,4R)-1-((S)-14-(TERT-BUTYL)-1-(4-(4-((4-(TERT-BUTYL)PHENYL)SULFONYL)-5-METHYL-1H-1,2,3-TRIAZOL-1-YL)-5-METHOXY-2-METHYLPHENOXY)-12-OXO-3,6,9-TRIOXA-13-AZAPENTADECAN-15-OYL)-4-HYDROXY-N-(4-(4-METHYLTHIAZOL-5-YL)BENZYL)PYRROLIDINE-2-CARBOXAMIDE], the CC50 under setting [3] was above 30 µM and the CC50 under setting [4] is above 30 µM.
Consider `COc1cc(OCCCCCCOCCOCC(=O)N[C@H](C(=O)N2C[C@H](O)C[C@H]2C(=O)NCc2ccc(-c3scnc3C)cc2)C(C)(C)C)c(C)cc1-n1nnc(S(=O)(=O)c2ccc(C(C)(C)C)cc2)c1C` [Compound 28, (2S,4R)-1-((S)-2-(2-(2-((6-(4-(4-((4-(TERT-BUTYL)PHENYL)SULFONYL)-5-METHYL-1H-1,2,3-TRIAZOL-1-YL)-5-METHOXY-2-METHYLPHENOXY)HEXYL)OXY)ETHOXY)ACETAMIDO)-3,3-DIMETHYLBUTANOYL)-4-HYDROXY-N-(4-(4-METHYLTHIAZOL-5-YL)BENZYL)PYRROLIDINE-2-CARBOXAMIDE], for which the CC50 under setting [3] is above 30 µM and the half-maximal cytotoxic concentration (CC50) under setting [4] is above 30 µM.
Take `COc1cc(OCCOCCOCCOCCOCCC(=O)N[C@H](C(=O)N2C[C@H](O)C[C@H]2C(=O)NCc2ccc(-c3scnc3C)cc2)C(C)(C)C)c(C)cc1-n1nnc(S(=O)(=O)c2ccc(C(C)(C)C)cc2)c1C` [Compound 29, (2S,4R)-1-((S)-17-(TERT-BUTYL)-1-(4-(4-((4-(TERT-BUTYL)PHENYL)SULFONYL)-5-METHYL-1H-1,2,3-TRIAZOL-1-YL)-5-METHOXY-2-METHYLPHENOXY)-15-OXO-3,6,9,12-TETRAOXA-16-AZAOCTADECAN-18-OYL)-4-HYDROXY-N-(4-(4-METHYLTHIAZOL-5-YL)BENZYL)PYRROLIDINE-2-CARBOXAMIDE]: the CC50 by setting is: under setting [3], above 30 µM; under setting [4], above 30 µM.
Take `COc1cc(OCC(=O)NCCOCCOCCOCCOCC(=O)N[C@H](C(=O)N2C[C@H](O)C[C@H]2C(=O)NCc2ccc(-c3scnc3C)cc2)C(C)(C)C)c(C)cc1-n1nnc(S(=O)(=O)c2ccc(C(C)(C)C)cc2)c1C` [Compound 30, (2S,4R)-1-((S)-2-(TERT-BUTYL)-20-(4-(4-((4-(TERT-BUTYL)PHENYL)SULFONYL)-5-METHYL-1H-1,2,3-TRIAZOL-1-YL)-5-METHOXY-2-METHYLPHENOXY)-4,19-DIOXO-6,9,12,15-TETRAOXA-3,18-DIAZAICOSANOYL)-4-HYDROXY-N-(4-(4-METHYLTHIAZOL-5-YL)BENZYL)PYRROLIDINE-2-CARBOXAMIDE]: the CC50 is above 30 µM under setting [3] and above 30 µM under setting [4].
Consider `COc1cc(OCCOCCOCCOCCOCCOCCC(=O)N[C@H](C(=O)N2C[C@H](O)C[C@H]2C(=O)NCc2ccc(-c3scnc3C)cc2)C(C)(C)C)c(C)cc1-n1nnc(S(=O)(=O)c2ccc(C(C)(C)C)cc2)c1C` [Compound 31, (2S,4R)-1-((S)-20-(TERT-BUTYL)-1-(4-(4-((4-(TERT-BUTYL)PHENYL)SULFONYL)-5-METHYL-1H-1,2,3-TRIAZOL-1-YL)-5-METHOXY-2-METHYLPHENOXY)-18-OXO-3,6,9,12,15-PENTAOXA-19-AZAHENICOSAN-21-OYL)-4-HYDROXY-N-(4-(4-METHYLTHIAZOL-5-YL)BENZYL)PYRROLIDINE-2-CARBOXAMIDE], for which the CC50 is above 30 µM under setting [3] and above 30 µM under setting [4].
`COc1cc(OCCCCCCOCCCCCOCCCCCC(=O)N[C@H](C(=O)N2C[C@H](O)C[C@H]2C(=O)NCc2ccc(-c3scnc3C)cc2)C(C)(C)C)c(C)cc1-n1nnc(S(=O)(=O)c2ccc(C(C)(C)C)cc2)c1C` [Compound 32, (2S,4R)-1-((S)-2-(6-((5-((6-(4-(4-((4-(tert-Butyl)phenyl)sulfonyl)-5-methyl-1H-1,2,3-triazol-1-yl)-5-methoxy-2-methylphenoxy)hexyl)oxy)pentyl)oxy)hexanamido)-3,3-dimethylbutanoyl)-4-hydroxy-N-(4-(4-methylthiazol-5-yl)benzyl)pyrrolidine-2-carboxamide]: the CC50 runs as follows: under setting [3], above 30 µM; under setting [4], above 30 µM.

The values are drawn from patent US12516051B1, “Small molecule degraders and fluorescent probes of PXR” (St. Jude Children's Research Hospital, Inc., priority 2024, dated 2026).
